Laboratory results reported in patent publication US20260258003A1, “SLACK-ACTIVATING COMPOUNDS AND THEIR MEDICAL USE” (Johann Wolfgang Goethe-Universität Frankfurt am Main, priority 2023, published 2026).

How the values were obtained:
Format in all cases: in vivo
[1] = tested on: MC903-induced persistent itch behavior of mice; assay: MC903 model of persistent itch (skin inflammation); conditions: i.p. at day 8, vs vehicle
Experimental: Similarly, the effect of Compound 6 was also examined in the MC903 model of skin inflammation, which has some characteristics of allergic contact dermatitis and atopic dermatitis^32.
The fur on the dorsolateral aspect of the neck was shaved under brief isoflurane anesthesia. Five days thereafter, 20 μL MC903 (0.2 mM; Calcipotriol, Tocris) solved in absolute ethanol was applied to the skin at the back of the neck in brief anesthesia for 7 consecutive days. On day 8, mice were habituated for 30 min in separate plexiglass cylinders (30 cm diameter). Compounds or vehicle (10% 2-hydroxypropyl-β-cyclodextrine in 0.9% saline) were i.p. administered, and 15 min thereafter spontaneous scratching was recorded over 30 min by videotaping (FIG. 10D). […] These findings are important, because they indicate that Slack activators can ameliorate pruritus that has already established.

[2] = tested on: SLIGRL-induced scratching behavior of mice; assay: SLIGRL-induced acute itch model; conditions: 10 mg/kg i.p.
Experimental: Further studies were conducted to assess the in vivo efficacy of Compound 6 and Compound 10 in mice. In detail, experiments were performed in 8 to 16 weeks old C57BL/6N mice (Charles River, Sulzfeld, Germany) and animals with a genetic deletion of Slack (Slack^−/− mice^27) of either sex. Animals were housed on a 12 h light/dark cycle with access to food and water ad libitum. […]
Acute itch behavior of the mice was monitored using a histamine-based, chloroquine-based and SLIGRL-based acute itch behavior model. […] Numbers of scratching bouts directed to the nape of the neck were assessed over 30 min by videotaping.
Antipruritic efficacy of Compound 6 in histamine-independent itch evoked by SLIGRL injection: The chloroquine-induced scratching in mice is driven by activation of MrgprA3 in the NP2 population of sensory neurons^4,29. To further explore the antipruritic efficacy of Compound 6 in histamine-independent itch, the inventors assessed the behavioral response after s.c. injection of the peptide Ser-Leu-Ile-Gly-Arg-Leu (SLIGRL) that evokes scratching by activation of MrgprC11 (ref^30), which is expressed in the NP2 and NP3 population^4. […]

[3] = tested on: heart rate and breath rate of mice; assay: Pulse oximetry on conscious, freely moving mice; conditions: 10 mg/kg i.p., observation period of 30 min
Experimental: Finally, potential side effects of Compound 6 were assessed by measuring cardiovascular functions by pulse oximetry.

[4] = tested on: neuropathic pain behavior of mice; assay: Spared nerve injury (SNI) model of neuropathic pain; conditions: i.p., 28 days after SNI surgery, assessed over 3 h
Experimental: FIG. 8: Compound 6 and Compound 10 inhibit histamine-independent acute itch behavior and neuropathic pain behavior. (A), (B), Motor function. […] Dotted lines indicate cutoff times. * p<0.05, *** p<0.001, Kruskal-Wallis test. (C)-(G), Acute itch behavior. Compound 6, Compound 10 or vehicle were i.p. administered and 15 min thereafter different pruritogens were s.c. administered into the nape of the neck and the number of scratching bouts was counted over 30 min. In each panel, the time course of scratching behavior is shown on the left and the sum of scratching bouts in 30 min is presented on the right. (C), Compound 6 and Compound 10 inhibited the scratching behavior induced by chloroquine in a dose-dependent manner. (D) Compound 6 inhibited the chloroquine-induced scratching behavior in WT mice but not in Slack^−/− littermates. (E) Compound 6 ameliorated the scratching behavior induced by SLIGRL, (F) but not by histamine. n=7-8 per group. […] Twenty-eight days thereafter, mechanical hypersensitivity of the affected hindpaw (determined using a Dynamic Plantar Aesthesiometer), which is indicated by decreased paw withdrawal latency time, was detected in all mice. Then Compound 10 or vehicle were i.p. administered and the mechanical sensitivity was assessed over 3 h. […]

With `O=C(O)COCCN1CCN(C2=Nc3ccccc3Oc3ccc(Cl)cc32)CC1` [Compound 6, 2-(2-(4-(2-Chlorodibenzo[b,f][1,4]oxazepin-11-yl)piperazin-1-yl)ethoxy) acetic acid] as the molecule, how does the “head shaking, MC903 model” value [1] read?
Its value is “significantly ameliorated”.

What about the “scratching, MC903 model” value [1] of the same molecule?
Its value is “significantly ameliorated”.

And the SLIGRL-induced scratching behavior [2]?
Its SLIGRL-induced scratching behavior is “significantly inhibited”.

And the breath rate [3]?
The breath rate was “did neither affect”.

And the heart rate [3]?
Its heart rate is “did neither affect”.

How did the “neuropathic pain behavior (mechanical hypersensitivity, paw withdrawal latency)” value [4] turn out when `O=c1nc(CN2CCN(C3=Nc4ccccc4Oc4ccc(Cl)cc43)CC2)[nH][nH]1` [Compound 10, 5-((4-(2-Chlorodibenzo[b,f][1,4]oxazepin-11-yl)piperazin-1-yl)methyl)-1,2-dihydro-3H-1,2,4-triazol-3-one] was run?
Its value is “inhibited the neuropathic pain behavior”.
